In brackets after ≈: the same amount, converted by molar mass. Activity calls are given as the source filed them. The calls are words filed in the database; no cut-off is given here.
Columns and labels:
Type in all cases: functional
[1] = test system: SW-620; test: Growth inhibition of human SW620 cells at 10^-5 M incubated for 48 hrs by sulforhodamine B assay relative to control
[2] = test system: K562; test: Growth inhibition of human K562 cells at 10^-5 M incubated for 48 hrs by sulforhodamine B assay relative to control
[3] = test system: OVCAR-3; test: Growth inhibition of human OVCAR3 cells at 10^-5 M incubated for 48 hrs by sulforhodamine B assay relative to control
[4] = test system: UACC-257; test: Growth inhibition of human UACC257 cells at 10^-5 M incubated for 48 hrs by sulforhodamine B assay relative to control
[5] = test system: SK-MEL-28; test: Growth inhibition of human SK-MEL-28 cells at 10^-5 M incubated for 48 hrs by sulforhodamine B assay relative to control
[6] = test system: NCI-H23; test: Growth inhibition of human NCI-H23 cells at 10^-5 M incubated for 48 hrs by sulforhodamine B assay relative to control
[7] = test system: Candida albicans; test: Antifungal activity against Candida albicans at 100 ug/ml by disc diffusion method; settings: read-out: IZ
[8] = test system: Aspergillus fumigatus; test: Antifungal activity against Aspergillus fumigatus after 24 hrs by serial dilution method
[9] = test system: UACC-62; test: Growth inhibition of human UACC62 cells at 10^-5 M incubated for 48 hrs by sulforhodamine B assay relative to control
[10] = test system: SR; test: Growth inhibition of human SR cells at 10^-5 M incubated for 48 hrs by sulforhodamine B assay relative to control
[11] = test system: CAKI-1; test: Growth inhibition of human Caki1 cells at 10^-5 M incubated for 48 hrs by sulforhodamine B assay relative to control
[12] = test system: UO-31; test: Growth inhibition of human UO31 cells at 10^-5 M incubated for 48 hrs by sulforhodamine B assay relative to control
[13] = test system: Hs-578T; test: Growth inhibition of human Hs 578T cells at 10^-5 M incubated for 48 hrs by sulforhodamine B assay relative to control
[14] = test system: OVCAR-8; test: Growth inhibition of human OVCAR8 cells at 10^-5 M incubated for 48 hrs by sulforhodamine B assay relative to control
[15] = test system: Aspergillus fumigatus; test: Antifungal activity against Aspergillus fumigatus at 100 ug/ml by disc diffusion method; settings: read-out: IZ
[16] = test system: M14; test: Growth inhibition of human M14 cells at 10^-5 M incubated for 48 hrs by sulforhodamine B assay relative to control
[17] = test system: SNB-19; test: Growth inhibition of human SNB19 cells at 10^-5 M incubated for 48 hrs by sulforhodamine B assay relative to control
[18] = test system: MDA-MB-468; test: Growth inhibition of human MDA-MB-468 cells at 10^-5 M incubated for 48 hrs by sulforhodamine B assay relative to control
[19] = test system: NCI-H522; test: Growth inhibition of human NCI-H522 cells at 10^-5 M incubated for 48 hrs by sulforhodamine B assay relative to control
[20] = test system: U-251; test: Growth inhibition of human U251 cells at 10^-5 M incubated for 48 hrs by sulforhodamine B assay relative to control
[21] = test system: HCT-116; test: Growth inhibition of human HCT116 cells at 10^-5 M incubated for 48 hrs by sulforhodamine B assay relative to control
[22] = test system: MOLT-4; test: Growth inhibition of human MOLT4 cells at 10^-5 M incubated for 48 hrs by sulforhodamine B assay relative to control
[23] = test system: SF-295; test: Growth inhibition of human SF295 cells at 10^-5 M incubated for 48 hrs by sulforhodamine B assay relative to control
[24] = test system: MCF7; test: Growth inhibition of human MCF7 cells at 10^-5 M incubated for 48 hrs by sulforhodamine B assay relative to control
[25] = test system: HCC 2998; test: Growth inhibition of human HCC2998 cells at 10^-5 M incubated for 48 hrs by sulforhodamine B assay relative to control
[26] = test system: SK-OV-3; test: Growth inhibition of human SKOV3 cells at 10^-5 M incubated for 48 hrs by sulforhodamine B assay relative to control
[27] = test system: KM12; test: Growth inhibition of human KM12 cells at 10^-5 M incubated for 48 hrs by sulforhodamine B assay relative to control
[28] = test system: OVCAR-5; test: Growth inhibition of human OVCAR5 cells at 10^-5 M incubated for 48 hrs by sulforhodamine B assay relative to control
[29] = test system: ACHN; test: Growth inhibition of human ACHN cells at 10^-5 M incubated for 48 hrs by sulforhodamine B assay relative to control
[30] = test system: IGROV-1; test: Growth inhibition of human IGROV1 cells at 10^-5 M incubated for 48 hrs by sulforhodamine B assay relative to control
[31] = test system: OVCAR-4; test: Growth inhibition of human OVCAR4 cells at 10^-5 M incubated for 48 hrs by sulforhodamine B assay relative to control
[32] = test system: Malme-3M; test: Growth inhibition of human MALME-3M cells at 10^-5 M incubated for 48 hrs by sulforhodamine B assay relative to control
[33] = test system: RXF 393; test: Growth inhibition of human RXF393 cells at 10^-5 M incubated for 48 hrs by sulforhodamine B assay relative to control
[34] = test system: MDA-MB-435; test: Growth inhibition of human MDA-MB-435 cells at 10^-5 M incubated for 48 hrs by sulforhodamine B assay relative to control
[35] = test system: SF-268; test: Growth inhibition of human SF268 cells at 10^-5 M incubated for 48 hrs by sulforhodamine B assay relative to control
[36] = test system: NCI-H226; test: Growth inhibition of human NCI-H226 cells at 10^-5 M incubated for 48 hrs by sulforhodamine B assay relative to control
[37] = test system: SK-MEL-5; test: Growth inhibition of human SK-MEL-5 cells at 10^-5 M incubated for 48 hrs by sulforhodamine B assay relative to control
[38] = test system: A549; test: Growth inhibition of human A549/ATCC cells at 10^-5 M incubated for 48 hrs by sulforhodamine B assay relative to control
[39] = test system: NCI-H460; test: Growth inhibition of human NCI-H460 cells at 10^-5 M incubated for 48 hrs by sulforhodamine B assay relative to control
[40] = test system: HT-29; test: Growth inhibition of human HT-29 cells at 10^-5 M incubated for 48 hrs by sulforhodamine B assay relative to control
[41] = test system: COLO 205; test: Growth inhibition of human COLO205 cells at 10^-5 M incubated for 48 hrs by sulforhodamine B assay relative to control
[42] = test system: MDA-MB-231; test: Growth inhibition of human MDA-MB-231/ATCC cells at 10^-5 M incubated for 48 hrs by sulforhodamine B assay relative to control
[43] = test system: BT-549; test: Growth inhibition of human BT549 cells at 10^-5 M incubated for 48 hrs by sulforhodamine B assay relative to control
[44] = test system: SF-539; test: Growth inhibition of human SF539 cells at 10^-5 M incubated for 48 hrs by sulforhodamine B assay relative to control

SMILES: COc1ccc2nc(Cl)c(Cn3nnnc3Cc3ccccc3)cc2c1
- growth inhibition (GI) [1]: Active
- growth inhibition (GI) [2]: Active
- growth inhibition (GI) [3]: Active
- growth inhibition (GI) [4]: Active
- growth inhibition (GI) [5]: Active
- growth inhibition (GI) [6]: Active
- zone of inhibition at 100 µg/mL [7]: 15 mm
- MIC [8]: 25 µg/mL (≈ 68.3 µM)
- growth inhibition (GI) [9]: Active
- growth inhibition (GI) [10]: Active
- growth inhibition (GI) [11]: Active
- growth inhibition (GI) [12]: Active
- growth inhibition (GI) [13]: Active
- growth inhibition (GI) [14]: Active
- zone of inhibition at 100 µg/mL [15]: 20 mm
- growth inhibition (GI) [16]: Active
- growth inhibition (GI) [17]: Active
- growth inhibition (GI) [18]: Active
- growth inhibition (GI) [19]: Active
- growth inhibition (GI) [20]: Active
- growth inhibition (GI) [21]: Active
- growth inhibition (GI) [22]: Active
- growth inhibition (GI) [23]: Active
- growth inhibition (GI) [24]: Active
- growth inhibition (GI) [25]: Active
- growth inhibition (GI) [26]: Active
- growth inhibition (GI) [27]: Active
- growth inhibition (GI) [28]: Active
- growth inhibition (GI) [29]: Active
- growth inhibition (GI) [30]: Active
- growth inhibition (GI) [31]: Active
- growth inhibition (GI) [32]: Active
- growth inhibition (GI) [33]: Active
- growth inhibition (GI) [34]: Active
- growth inhibition (GI) [35]: Active
- growth inhibition (GI) [36]: Active
- growth inhibition (GI) [37]: Active
- growth inhibition (GI) [38]: Active
- growth inhibition (GI) [39]: Active
- growth inhibition (GI) [40]: Active
- growth inhibition (GI) [41]: Active
- growth inhibition (GI) [42]: Active
- growth inhibition (GI) [43]: Active
- growth inhibition (GI) [44]: Active

SMILES: Clc1nc2ccc(Br)cc2cc1Cn1nnc(Cc2ccccc2)n1
- growth inhibition (GI) [1]: Active
- growth inhibition (GI) [2]: Active
- growth inhibition (GI) [3]: Active
- growth inhibition (GI) [4]: Active
- growth inhibition (GI) [5]: Active
- growth inhibition (GI) [6]: Active
- zone of inhibition at 100 µg/mL [7]: 10 mm
- MIC [8]: 10 µg/mL (≈ 24.1 µM)
- growth inhibition (GI) [9]: Active
- growth inhibition (GI) [10]: Active
- growth inhibition (GI) [11]: Active
- growth inhibition (GI) [12]: Active
- growth inhibition (GI) [13]: Active
- growth inhibition (GI) [14]: Active
- zone of inhibition at 100 µg/mL [15]: 13 mm
- growth inhibition (GI) [16]: Active
- growth inhibition (GI) [17]: Active
- growth inhibition (GI) [18]: Active
- growth inhibition (GI) [19]: Active
- growth inhibition (GI) [20]: Active
- growth inhibition (GI) [21]: Active
- growth inhibition (GI) [22]: Active
- growth inhibition (GI) [23]: Active
- growth inhibition (GI) [24]: Active
- growth inhibition (GI) [25]: Active
- growth inhibition (GI) [26]: Active
- growth inhibition (GI) [27]: Active
- growth inhibition (GI) [28]: Active
- growth inhibition (GI) [29]: Active
- growth inhibition (GI) [30]: Active
- growth inhibition (GI) [31]: Active
- growth inhibition (GI) [32]: Active
- growth inhibition (GI) [33]: Active
- growth inhibition (GI) [34]: Active
- growth inhibition (GI) [35]: Active
- growth inhibition (GI) [36]: Active
- growth inhibition (GI) [37]: Active
- growth inhibition (GI) [38]: Active
- growth inhibition (GI) [39]: Active
- growth inhibition (GI) [40]: Active
- growth inhibition (GI) [41]: Active
- growth inhibition (GI) [42]: Active
- growth inhibition (GI) [43]: Active
- growth inhibition (GI) [44]: Active

From ChEMBL document CHEMBL4004849, “Tetrazolylmethyl quinolines: Design, docking studies, synthesis, anticancer and antifungal analyses” (2017)
